Earlier results as cited in paper PMC7153166 (Elektrophysiologie, 2018).

How the values were obtained:
Assay type in all cases: cell-based
[1] = target: T1, P2X1-Rezeptor (Rattus norvegicus, UniProt P47824); assay: two-electrode voltage clamp, Xenopus oocytes
T1 sequence (P47824 1-399): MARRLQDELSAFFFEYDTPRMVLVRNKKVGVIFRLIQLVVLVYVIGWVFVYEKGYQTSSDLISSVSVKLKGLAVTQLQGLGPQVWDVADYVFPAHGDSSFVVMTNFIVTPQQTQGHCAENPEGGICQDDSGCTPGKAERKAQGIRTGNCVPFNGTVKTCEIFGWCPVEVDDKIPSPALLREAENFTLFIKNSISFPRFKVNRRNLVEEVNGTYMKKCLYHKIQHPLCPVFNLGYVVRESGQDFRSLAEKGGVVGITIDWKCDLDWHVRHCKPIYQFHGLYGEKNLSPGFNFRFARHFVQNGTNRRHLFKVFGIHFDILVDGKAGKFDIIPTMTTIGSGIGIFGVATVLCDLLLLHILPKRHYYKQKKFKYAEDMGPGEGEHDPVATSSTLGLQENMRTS

[2] = target: T2, P2X2-Rezeptor (Rattus norvegicus, UniProt P49653); assay: two-electrode voltage clamp, Xenopus oocytes; conditions: agonist
T2 sequence (P49653 1-472): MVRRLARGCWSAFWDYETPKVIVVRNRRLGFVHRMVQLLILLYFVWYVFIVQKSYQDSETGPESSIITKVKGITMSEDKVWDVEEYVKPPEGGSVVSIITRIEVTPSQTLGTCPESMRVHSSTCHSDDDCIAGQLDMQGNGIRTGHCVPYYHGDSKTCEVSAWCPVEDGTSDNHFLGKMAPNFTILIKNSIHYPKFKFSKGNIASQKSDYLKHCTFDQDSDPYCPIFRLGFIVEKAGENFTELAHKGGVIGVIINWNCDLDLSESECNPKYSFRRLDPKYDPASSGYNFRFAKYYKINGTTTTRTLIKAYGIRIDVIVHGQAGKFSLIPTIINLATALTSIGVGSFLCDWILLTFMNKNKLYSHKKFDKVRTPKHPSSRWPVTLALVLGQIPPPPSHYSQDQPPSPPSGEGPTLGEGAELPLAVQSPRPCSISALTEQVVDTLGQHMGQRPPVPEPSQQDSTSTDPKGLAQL

[3] = target: 3a-Protein (Severe acute respiratory syndrome-related coronavirus, UniProt P59632)
Chain of 3a-Protein (P59632 whole entry, looked up): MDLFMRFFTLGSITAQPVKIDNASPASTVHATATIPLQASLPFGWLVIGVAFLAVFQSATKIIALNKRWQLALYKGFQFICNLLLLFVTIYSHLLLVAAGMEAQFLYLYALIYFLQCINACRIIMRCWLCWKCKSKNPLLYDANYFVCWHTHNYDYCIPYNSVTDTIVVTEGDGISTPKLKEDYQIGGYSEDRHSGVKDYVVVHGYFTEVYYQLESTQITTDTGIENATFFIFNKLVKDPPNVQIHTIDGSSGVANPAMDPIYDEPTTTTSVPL

Structure (SMILES)	EC50 [1] [µM]	EC50 [2] [µM]	IC50 [3] [µM]
Nc1ncnc2c1ncn2[C@@H]1O[C@H](COP(=O)(O)OP(=O)(O)OP(=O)(O)O)[C@@H](O)[C@H]1O [ATP]	0.6	~30	
Cc1cc(O)c2c(c1)C(=O)c1cc(O)cc(O)c1C2=O [Emodin, 1,3,8-Trihydroxcy-6-methylanthracen-9,10-dion]			20
O=c1c(O[C@@H]2O[C@@H](CO)[C@H](O)[C@H]2O)c(-c2ccc(O)cc2)oc2cc(O)cc(O)c12 [Juglanin]			~2
